{"source": "patent US12570605B2", "about": "“Indole compounds, and preparation methods, and uses thereof” (Shenzhen 01 Life Science and Technology Co., Ltd., priority 2021, dated 2026)", "key": {"[1]": {"system": "mouse model with ear AD-like symptoms induced by calcipotriol (MC903)", "experiment": "Mouse model with ear AD-like symptoms induced by calcipotriol (MC903), first batch of experiments (Embodiment 32)", "assay_type": "in vivo, BALB/c mouse", "conditions": "MC903 6.9 nmol/mouse every day; for therapeutic effects on AD-like symptoms in the ear of mice (combined with ear inflammation and tissue HE staining): 11 days", "protocol": "(§1) A mouse model with ear AD-like symptoms induced by calcipotriol (MC903) was used to investigate these compounds in terms of the treatment activity for AD.\n(§2) Referring to the Patent with a publication number of CN 110368386 A, a mouse model induced by MC903 (Calcipotriene) was prepared, wherein both ears of the BALB/c mouse model were applied with MC903, MC903+indole-3-aldehyde (IAId), or MC903+the compound prepared from the embodiments for 11 consecutive days, respectively, and total serum IgE levels, ear thicknesses, and weight loss in relative to the weight at the beginning of the experiment were tested at the end of the experiment.\n(§3) The data shown in the results were average values ±SD of five independently repeated trials. Significance analysis was performed using Mann-Whitney test on the differences of corresponding parameters of the mice with the treatment group (MC903+ethanol (EtOH)), which was only administrated with MC903, wherein * indicated P<0.05, ** indicated P<0.01; *** indicated P<0.001.\nIn this batch of experiments, the dosage of MC903, a drug for constructing the models, was 6.9 nmol/mouse every day, and the experimental results of Compounds 1, 2, 3, 6, 7, 19, 20, 28, 29, 30, 34, 37, 38, and 39 in this batch were shown in FIGS. 11 to 13.\n(§4) EtOH group was a Blank control group, which was only administrated with ethanol. MC903+ EtOH group was a model control group, which was administrated with Calcipotriene and ethanol. The remaining groups were the groups which were administered with MC903 to construct the model, and then administrated with different drugs. Indole-3-aldehyde (IAId) group was the group administered with IAId, indole-3-methanol (I3C) group was the group administered with I3C. The other compound groups were the groups administered with corresponding compounds."}, "[2]": {"system": "mouse model with ear AD-like symptoms induced by calcipotriol (MC903)", "experiment": "Mouse model with ear AD-like symptoms induced by calcipotriol (MC903), second batch of experiments (Embodiment 32)", "assay_type": "in vivo, BALB/c mouse", "conditions": "MC903 5 nmol/mouse every day, 9 days; for therapeutic effects on AD-like symptoms in the ear of mice (ear inflammation, tissue HE staining, parameters of multiple experiments): screening over both batches", "protocol": "as §1, §2, §3\nTherefore, in the second batch of drug tests, the dosage of MC903 was decreased to 5 nmol/mouse every day, and the test period was reduced to 9 days.\nas §4, with “then administered” for “then administrated”, “with IAId. Indole-3-methanol” for “with IAId, indole-3-methanol”"}, "[3]": {"system": "mouse model with ear AD-like symptoms induced by calcipotriol (MC903)", "experiment": "Optimum effective concentration in treatment of AD-like symptoms, MC903 mouse model (Embodiment 33)", "assay_type": "in vivo", "conditions": "dosages per Table 11; vs group only administrated with MC903", "protocol": "The above screened compounds having therapeutic effect on AD-like symptoms were selected to further determine the optimum effective concentration.\nReferring to the animal model method in the Embodiment 32, dosages of drugs for each group were determined according to the table below, and the optimal effective concentration in treatment of AD-like symptoms was explored by comparing the differences in ear thicknesses, the total serum IgE levels and the weight loss of the mice with those of the treatment group only administrated with MC903."}, "[4]": {"conditions": "both ears, 11 consecutive days, vs model control group (MC903+EtOH), Mann-Whitney test"}, "[5]": {"conditions": "vs model control group (MC903+EtOH), Mann-Whitney test"}}, "note": "Entries after “also recorded” stand apart in the source; their conditions may differ."}
{"smiles": "CCCCCCCC(=O)OCn1cc(CO)c2ccccc21", "note": "[Compound 38, (3-(hydroxymethyl)-1H-indol-1-yl)methyl octanoate]", "values": [{"measurement": "therapeutic effects on AD-like symptoms in the ear of mice (combined with ear inflammation and tissue HE staining)", "setting": "[1]", "result": "significant therapeutic effects"}, {"measurement": "reducing the total serum IgE levels of the mice", "setting": "[1]; [4]", "result": "statistically significant difference; also recorded: excellent effects"}, {"measurement": "therapeutic effects on AD-like symptoms in the ear of mice (ear inflammation, tissue HE staining, parameters of multiple experiments)", "setting": "[2]", "result": "therapeutic effects"}, {"measurement": "reducing ear thicknesses of the mice", "setting": "[2]; [5]", "result": "statistically significant difference"}, {"measurement": "reducing the total serum IgE levels of the mice", "setting": "[2]; [5]", "result": "statistically significant difference"}, {"measurement": "inhibitory effect on systematic inflammation (lower total serum IgE levels and improvement on AD-like symptoms in the mice ear)", "setting": "[3]", "result": "good inhibitory effect; also recorded: excellent inhibitory effect"}]}
{"smiles": "CCCCCCCC(=O)OCn1cc(C=O)c2ccccc21", "note": "[Compound 29, (3-formyl-1H-indol-1-yl)methyl octanoate]", "values": [{"measurement": "therapeutic effects on AD-like symptoms in the ear of mice (combined with ear inflammation and tissue HE staining)", "setting": "[1]", "result": "significant therapeutic effects"}, {"measurement": "reducing ear thicknesses of the mice", "setting": "[1]; [4]", "result": "statistically significant difference; also recorded: excellent effects"}, {"measurement": "reducing the total serum IgE levels of the mice", "setting": "[1]; [4]", "result": "statistically significant difference"}, {"measurement": "therapeutic effects on AD-like symptoms in the ear of mice (ear inflammation, tissue HE staining, parameters of multiple experiments)", "setting": "[2]", "result": "therapeutic effects"}, {"measurement": "reducing ear thicknesses of the mice", "setting": "[2]; [5]", "result": "statistically significant difference"}, {"measurement": "inhibitory effect on systematic inflammation (lower total serum IgE levels and improvement on AD-like symptoms in the mice ear)", "setting": "[3]", "result": "good inhibitory effect"}]}
